From patent publication US6291442A, “Pharmacological modulators of voltage-gated potassium ion channels” (The General Hospital Corporation, priority 1999, dated 2001)
“Also recorded” adds a separate entry of the source.

tested on: Shaker class voltage-gated potassium ion channels; assay: not given; details: tetraethylammonium 5 mM alone; depolarizing pulse +60 mV
Description: At a depolarizing pulse of +60 mV, the steady state blockade of current caused by channel-blockers was measured as the current in the presence of the channel-blocker divided by the current in the absence of the channel-blocker.

SMILES | steady state blockade of current
CC[N+](CC)(CC)CC [tetraethylammonium] | 15%

same assay, conditions: tetraethylammonium 5 mM in the presence of 10 mM 2-benzoylbenzoic acid; +60 mV

SMILES | steady state blockade of current
CC[N+](CC)(CC)CC [tetraethylammonium] | 16%

tested on: Drosophila Shaker H4 potassium ion channels; assay: Patch voltage clamp recording, time course of channel closure (deactivation); details: inside-out excised patch voltage clamp, FIG. 3
Excerpt: Standard patch recording methods were used to record potassium channel currents from the transfected cells (Hamill, O. P., Marty, A., Neher, E., Sakmann, B., and Sigworth, F. J., Pfluegers Arch(1981), 391:85, the entire teachings of which are incorporated herein by reference). If expression was sufficiently high, the excised inside-out or excised outside-out recording configurations was used; otherwise the whole cell recording configuration was used. […] Standard extracellular saline was used in the recording pipette, and standard intracellular saline was perfused on the exposed side, or bath side, of the membrane. Test compounds were added to the intracellular saline at the concentration specified.
For recording the time course of channel activation and deactivation, voltage clamp steps were applied from a resting potential of -80 to -100 mV to an activation potential of between -60 and +60 mV; after these activating steps (lasting 5-100 ms in duration), the voltage was returned to a potential of between -120 and -60 mV to monitor the time course of closure, or de-activation, of the channels. Standard experimental solutions contained, in mM: 150 NaCl, 10 KCl, 3 CaCl2, 1 MgCl2, and 10 HEPES, at pH 7.4 in the pipette solution; and 160 KCl, 0.5 MgCl2, 1 EGTA, and 10 HEPES, at pH 7.4 in the bath solution. Solutions with Cd^2+ contained no EGTA.
In Table I, II and III, the time course of closure of Drosophila Shaker H4 potassium ion channels was measured in the presence of a test compound and compared to the time course of closure in the absence of a test compound.

SMILES | effect on the maximal level of outward or inward current
O=C(O)c1ccc([N+](=O)[O-])cc1Oc1cccc([N+](=O)[O-])c1 | little or no effect

same assay, conditions: inside-out excised patch voltage clamp, FIG. 3 and 4

SMILES | effect on the closing of the ion channel
O=C(O)c1ccc([N+](=O)[O-])cc1Oc1cccc([N+](=O)[O-])c1 | slows the closing of the ion channel
CCOc1ccc(Nc2cc([N+](=O)[O-])ccc2C(=O)O)cc1 [N-(4-ethoxyphenyl)-4-nitro anthranilic acid] | speeds the closing of the ion channel

same assay, conditions: inside-out excised patch voltage clamp, FIG. 4

SMILES | reduction in the maximal level of outward or inward current
CCOc1ccc(Nc2cc([N+](=O)[O-])ccc2C(=O)O)cc1 [N-(4-ethoxyphenyl)-4-nitro anthranilic acid] | < 20%

same assay, conditions: shaker h4 channel patch, 500 µM

SMILES | Approximate Increase in Time Course of Closure
O=C(O)c1ccccc1[S+]([O-])c1ccccc1 (centres unmarked) [1-carboxydiphenyl sulfoxide] | 2.2 X
Nc1cc(C(=O)c2ccccc2C(=O)O)ccc1Cl [2-(3-amino-4-chlorobenzoyl)benzoic acid] | 2 X
COc1cccc(Oc2c(OC)cccc2C(=O)O)c1 [2-(3-methoxyphenoxy)-3-methoxybenzoic acid] | < 2 X
O=C(O)c1ccccc1Oc1cccc([N+](=O)[O-])c1 [2-(3-nitrophenoxy)benzoic acid] | 3-4 X
Nc1ccc(C(=O)c2ccccc2C(=O)O)cc1[N+](=O)[O-] [2-(4-amino-3-nitro-benzoyl)benzoic acid] | ≥ 2 X
O=C(O)c1ccccc1C(=O)c1ccc(Cl)c([N+](=O)[O-])c1 [2-(4-chloro-3-nitrobenzoyl)benzoic acid] | 2 X
O=C(O)c1ccccc1C(=O)c1ccc(Cl)cc1 [2-(4-chlorobenzoyl)benzoic acid] | 2 X
Nc1cccc(C(=O)O)c1Oc1ccc(Cl)cc1 [2-(4-chlorophenoxy)-3-aminobenzoic acid] | 9 X
COc1ccc(Oc2c(C(=O)O)cccc2[N+](=O)[O-])cc1 [2-(4-methoxyphenoxy)-3-nitrobenzoic acid] | 1.5 X
Cc1ccc(C(=O)c2ccccc2C(=O)O)cc1 [2-(p-toluoyl)benzoic] | 2 X
Nc1ccccc1C(=O)c1ccccc1C(=O)O [2-aminobenzophenone-2-carboxylic] | 2 X
O=C(O)c1ccccc1C(=O)c1ccccc1 [2-benzoylbenzoic acid] | 2.5 X
Cc1ccc(Sc2ccccc2C(=O)O)c(S(N)(=O)=O)c1 [2-sulfamide-4-methyl-2'-carboxydiphenyl sulfide] | < 2 X
CC(=O)Nc1ccc(C=Cc2ccc([N+](=O)[O-])cc2S(=O)(=O)O)c(S(=O)(=O)O)c1 [4-nitro-4'-acetamide-2,2'-disulfonate stilbene] | 2 X
CC(C(=O)O)c1cccc(Oc2ccccc2)c1 (centres unmarked) [fenoprofen, reference compound] | 2.2 X
O=C(O)c1cccnc1Nc1cccc(C(F)(F)F)c1 [niflumic acid, reference compound] | 2.4 X

same assay, conditions: test compound 0.5 mM; compared to closure in the absence of test compound

SMILES | Approximate Decrease in Time Course of Closure
Cc1c(C)c(C)c(C(=O)c2ccccc2C(=O)O)c(C)c1C [2-(2,3,4,5,6-pentamethylbenzoyl) benzoic acid] | 2 X
CCCCN(CCCC)c1ccc(C(=O)c2ccccc2C(=O)O)c(O)c1 [2-(4-dibutylamino-2-hydroxybenzoyl) benzoic acid] | 6.4 X
O=C(O)c1c(Cl)c(Cl)c(Cl)c(Cl)c1C(=O)c1ccccc1 [2-benzoyl-3,4,5,6-tetrachloro-benzoic] | ≥ 2 X
O=C(O)c1ccc(Br)cc1Oc1ccccc1 [4-bromo-2-(phenoxy) benzoic acid] | ≥ 2 X
COc1cccc(C(=O)c2cc(OC)ccc2C(=O)O)c1 [4-methoxy-2-(3-methoxy-benzoyl)-benzoic acid] | ≤ 2 X
CC(C(=O)O)c1ccc2c(c1)[nH]c1ccc(Cl)cc12 (centres unmarked) [Carprofen, reference compound] | 3.2 X
Cc1ccc(Cl)c(Nc2ccccc2C(=O)O)c1Cl [Meclofenamic acid, reference compound] | 2.5 X
Nc1cc(Cl)ccc1Nc1ccccc1C(=O)O [N-(2-amino-4-chlorophenyl) anthranilic acid] | 2.4 X
CCOc1ccc(Nc2cc([N+](=O)[O-])ccc2C(=O)O)cc1 [N-(4-ethoxyphenyl)-4-nitro anthranilic acid] | 5-10 X

tested on: Drosophila Shaker H4 potassium ion channels; assay: Application to intracellular (inside-out patch) versus extracellular (outside-out patch) side of the membrane; type: cell-based; details: inside-out versus outside-out excised patch
Description: Compounds were applied to the intracellular side of the cell membrane by adding the compound to the solution bathing the exposed face of an excised inside-out patch containing Drosophila Shaker H4 potassium ion channels. Application to the extracellular side of the membrane was performed by adding the compound to the solution bathing the exposed face of an excised outside-out patch containing Drosophila Shaker H4 potassium ion channels.

SMILES | side of the cell membrane from which the compound is effective
O=C(O)c1ccccc1C(=O)c1ccccc1 [2-benzoylbenzoic acid] | effective from only one side of the membrane; also recorded: effective only from the intracellular side of the cell membrane
